Source: patent US9834526B2 (MERCK SHARP & DOHME CORP., priority 2013, dated 2017)

molecular target: T1, wildtype HIV-1 protease (Human immunodeficiency virus type 1 group M subtype B, UniProt P04585); assay: Inhibition of microbial expressed HIV protease (Pepcleav); type: biochemical; settings: wild type HIV-1 protease expressed in E. coli, 20 pM enzyme, 400 micromolar peptide substrate, pH 5.5, LC-MS readout; mean of at least two independent experiments
T1 construct: preincubated with the HIV-1 protease (wild type) enzyme in assay buffer; made in house; host or cells: Escherichia coli
Method: Assay for Inhibition of Microbial Expressed HIV Protease (“Pepcleav”)
Studies of the inhibition of the wildtype HIV-1 protease (which was expressed in Escherichia coli) were carried out with a peptide substrate [Val-Ser-Gln-Asn-(βnaphthyl)Ala-Pro-Ile-Val (SEQ ID NO:1)]. The inhibitor was first preincubated with the HIV-1 protease (wild type) enzyme in assay buffer (50 mM sodium acetate, pH 5.5, 100 mM NaCl, and 0.1% BSA) for 30 minutes at room temperature. Substrate was added to 400 micromolar in a total volume of 20 microliters containing 20 picomolar HIV-1 protease (final) and the reaction was incubated for 1 hour at 30° C. The reaction was quenched with the addition of formic acid and indinavir to 0.012% and 150 nM final concentrations, respectively. The product formation was determined after separation of product and substrate on a Zorbax Eclipse XDB-C18 column connected to an API 4000 mass spectrometer (Applied Biosystems) with multiple reaction monitoring (transitions were 644.5/428.9 and 615.4/422.2 (M1/M3) for product and indinavir respectively). The extent of inhibition of the reaction was determined from the peak area of the products. Analysis of the products, independently synthesized, provided quantitation standards and confirmation of the product composition.

Q: With `COC(=O)N[C@H](C(=O)Nc1ccccc1CC[C@@H]1CN[C@H](C)[C@@H](CSc2cccc3ncccc23)O1)C(c1ccccc1)c1ccccc1` [Example 4, methyl [(2S)-1-{[2-(2-{(2R,5R,6S)-5-methyl-6-[(quinolin-5-ylsulfanyl)methyl]morpholin-2-yl}ethyl)phenyl]amino}-1-oxo-3,3-diphenylpropan-2-yl]carbamate] as the molecule, how does the IC50 read?
A: The IC50 was 10.6 nM.

Q: Which IC50 does the source give for `CC(C)[C@@H](NC(=O)OC[C@H]1NC[C@@H](CCc2c(F)cccc2NC(=O)[C@@H](N)C(c2ccc(F)cc2)c2ccc(F)cc2)O[C@H]1C)c1ccc(F)cc1` [Example 58, 4-fluoro-N-[3-fluoro-2-(2-{(2R,5R,6S)-5-[({[(1R)-1-(4-fluorophenyl)-2-methylpropyl]carbamoyl}oxy)methyl]-6-methylmorpholin-2-yl}ethyl)phenyl]-β-(4-fluorophenyl)-L-phenylalaninamide] here?
A: Its IC50 is 6.9 nM.

Q: How did the IC50 turn out when `COC(=O)N[C@H](C(=O)Nc1ccccc1CC[C@@H]1CN[C@H](C)[C@@H](CSc2ccc(Cl)cc2)O1)C(c1ccccc1)c1ccccc1` [Example 1, N-(2-{2-[(2R,5R,6S)-6-{[(4-chlorophenyl)sulfanyl]methyl}-5-methylmorpholin-2-yl]ethyl}phenyl)-Nα-(methoxycarbonyl)-β-phenyl-L-phenylalaninamide] was run?
A: Its IC50 is 17.5 nM.

Q: For `COC(=O)N[C@H](C(=O)Nc1ccccc1CC[C@@H]1CN[C@H](c2ncc[nH]2)[C@@H](CSc2nnc(-c3ccncc3)o2)O1)C(c1ccccc1)c1ccccc1` [Example 32, N-(2-{2-[(2R,5R,6S)-5-(1H-imidazol-2-yl)-6-({[5-(pyridin-4-yl)-1,3,4-oxadiazol-2-yl]sulfanyl}methyl)morpholin-2-yl]ethyl}phenyl)-Nα-(methoxycarbonyl)-β-phenyl-L-phenylalaninamide], which IC50 is on record?
A: Its IC50 is 0.65 nM.

Q: For `COC(=O)N[C@H](C(=O)Nc1ccccc1CC[C@@H]1CN[C@H](C)[C@@H](CSc2nnc(-c3ccncc3)o2)O1)C(c1ccccc1)c1ccccc1` [Example 5, methyl N-[(1S)-1-benzhydryl-2-[[2-[2-[(2R,5R,6S)-5-methyl-6-[[5-(4-pyridyl)-1,3,4-oxadiazol-2-yl]sulfanylmethyl]morpholin-2-yl]ethyl]phenyl]amino]-2-oxo-ethyl]carbamate], which IC50 is on record?
A: The IC50 was 4.96 nM.

Q: With `CCC(O)(c1cnc(SC[C@H]2O[C@H](CCc3ccccc3NC(=O)[C@@H](NC(=O)OC)C(c3ccccc3)c3ccccc3)CN[C@@H]2C)s1)C(F)(F)F` (stereo partly drawn) [Example 15, methyl N-[(1S)-1-benzhydryl-2-[[2-[2-[(2R,5R,6S)-6-[[5-[1-hydroxy-1-(trifluoromethyl)propyl]thiazol-2-yl]sulfanylmethyl]-5-methyl-morpholin-2-yl]ethyl]phenyl]amino]-2-oxo-ethyl]carbamate] as the molecule, how does the IC50 read?
A: The IC50 was 17.8 nM.

Q: With `COC(=O)N[C@H](C(=O)Nc1ccccc1CC[C@@H]1CN[C@H](C)[C@@H](CSc2cnc3ccccc3n2)O1)C(c1ccccc1)c1ccccc1` [Example 9, methyl N-[(1S)-1-benzhydryl-2-[[2-[2-[(2R,5R,6S)-5-methyl-6-(quinoxalin-2-ylsulfanylmethyl)morpholin-2-yl]ethyl]phenyl]amino]-2-oxo-ethyl]carbamate] as the molecule, how does the IC50 read?
A: Its IC50 is 8.48 nM.

Q: With `COC(=O)N[C@H](C(=O)Nc1ccccc1CC[C@@H]1CN[C@H](COC(C)=O)[C@@H](CSc2nnc(-c3ccncc3)o2)O1)C(c1ccccc1)c1ccccc1` [Example 30, [(2S,3R,6R)-6-[2-(2-{[N-(methoxycarbonyl)-β-phenyl-L-phenylalanyl]amino}phenyl)ethyl]-2-({[5-(pyridin-4-yl)-1,3,4-oxadiazol-2-yl]sulfanyl}methyl)morpholin-3-yl]methyl acetate] as the molecule, how does the IC50 read?
A: The IC50 was 0.0334 nM.

Q: `COC(=O)N[C@H](C(=O)Nc1ccccc1CC[C@@H]1CN[C@H](COC(=O)NCC(F)(F)F)[C@@H](CSc2nnc(-c3ccncc3)o2)O1)C(c1ccccc1)c1ccccc1` [Example 43] was tested. Which IC50 did it give?
A: The IC50 was 0.01 nM.

Q: For `COC(=O)N[C@H](C(=O)Nc1ccccc1CC[C@@H]1CN[C@H](C)[C@@H](CSc2ncnc3c2ncn3[C@@H]2O[C@H](CO)[C@@H](O)[C@H]2O)O1)C(c1ccccc1)c1ccccc1` [Example 23, methyl N-[(1S)-1-benzhydryl-2-[[2-[2-[(2R,5R,6S)-6-[[9-[(2R,3R,4S,5R)-3,4-dihydroxy-5-(hydroxymethyl)tetrahydrofuran-2-yl]purin-6-yl]sulfanylmethyl]-5-methyl-morpholin-2-yl]ethyl]phenyl]amino]-2-oxo-ethyl]carbamate], which IC50 is on record?
A: Its IC50 is 51.9 nM.

Q: For `O=C(CC(c1ccc(F)cc1)c1ccc(F)cc1)Nc1cccc(F)c1CC[C@@H]1CN[C@H](CO)[C@@H](COC(=O)NCC(F)(F)F)O1` [Example 62], which IC50 is on record?
A: The IC50 was 170 nM.

Q: For `COC(=O)N[C@H](C(=O)Nc1ccccc1CC[C@@H]1CN[C@H](C)[C@@H](CSc2nnc(Cc3csc(C)n3)o2)O1)C(c1ccccc1)c1ccccc1` [Example 7, methyl N-[(1S)-1-benzhydryl-2-[[2-[2-[(2R,5R,6S)-5-methyl-6-[[5-[(2-methylthiazol-4-yl)methyl]-1,3,4-oxadiazol-2-yl]sulfanylmethyl]morpholin-2-yl]ethyl]phenyl]amino]-2-oxo-ethyl]carbamate], which IC50 is on record?
A: Its IC50 is 7.95 nM.

Q: `C[C@@H]1O[C@H](CCc2c(F)cccc2NC(=O)[C@@H](N)C(c2ccc(F)cc2)c2ccc(F)cc2)CN[C@@H]1COC(=O)N[C@H](C)C(F)(F)F` [Example 61, 4-fluoro-N-[3-fluoro-2-(2-{(2R,5R,6S)-6-methyl-5-[({[(1R)-2,2,2-trifluoro-1-methylethyl]carbamoyl}oxy)methyl]morpholin-2-yl}ethyl)phenyl]-β-(4-fluorophenyl)-L-phenylalaninamide] was tested. Which IC50 did it give?
A: Its IC50 is 27 nM.

Q: How did the IC50 turn out when `COC(=O)N[C@H](C(=O)Nc1ccccc1CC[C@@H]1CN[C@H](C)[C@@H](CSc2ncnc3[nH]ncc23)O1)C(c1ccccc1)c1ccccc1` [Example 10, methyl N-[(1S)-1-benzhydryl-2-[[2-[2-[(2R,5R,6S)-5-methyl-6-(1H-pyrazolo[3,4-d]pyrimidin-4-ylsulfanylmethyl)morpholin-2-yl]ethyl]phenyl]amino]-2-oxo-ethyl]carbamate] was run?
A: The IC50 was 9.43 nM.

Q: For `COC(=O)N[C@H](C(=O)Nc1ccccc1CC[C@@H]1CN[C@H](C)[C@@H](CSc2nc3ccc(OC(F)F)cc3[nH]2)O1)C(c1ccccc1)c1ccccc1` [Example 17, methyl N-[(1S)-1-benzhydryl-2-[[2-[2-[(2R,5R,6S)-6-[[5-(difluoromethoxy)-1H-benzimidazol-2-yl]sulfanylmethyl]-5-methyl-morpholin-2-yl]ethyl]phenyl]amino]-2-oxo-ethyl]carbamate], which IC50 is on record?
A: The IC50 was 25.1 nM.

Q: How did the IC50 turn out when `COC(=O)N[C@H](C(=O)Nc1ccccc1CC[C@@H]1CN[C@H](COC(=O)NCc2ccc(F)cc2)[C@@H](CSc2nnc(-c3ccncc3)o2)O1)C(c1ccccc1)c1ccccc1` [Example 35, N-(2-{2-[(2R,5R,6S)-5-({[(4-fluorobenzyl)carbamoyl]oxy}methyl)-6-({[5-(pyridin-4-yl)-1,3,4-oxadiazol-2-yl]sulfanyl}methyl)morpholin-2-yl]ethyl}phenyl)-Nα-(methoxycarbonyl)-β-phenyl-L-phenylalaninamide] was run?
A: Its IC50 is 0.0304 nM.

Q: `COC(=O)N[C@H](C(=O)Nc1ccccc1CC[C@@H]1CN[C@H](COC(=O)NCC(F)(F)F)[C@@H](CO)O1)C(c1ccccc1)c1ccccc1` [Example 46, N-(2-{2-[(2R,5R,6S)-6-(hydroxymethyl)-5-({[(2,2,2-trifluoroethyl)carbamoyl]oxy}methyl)morpholin-2-yl]ethyl}phenyl)-Nα-(methoxycarbonyl)-β-phenyl-L-phenylalaninamide] was tested. Which IC50 did it give?
A: Its IC50 is 65 nM.
